The source of these data is a melting point compilation (Tetko et al.; mined from patent text by program, amines drawn as free bases though some values may be those of a salt).

Molecules are shown by their SMILES. Where only a bound is given, the exact number is not on record here.

The melting point is the temperature of the solid-liquid transition. `Cc1nc(Br)c(S(C)(=O)=O)c(Br)n1` came in with a melting point of 161 to 162 °C.
Next, `Cc1oc(-c2ccccc2)nc1COc1ccc(OCc2nc(-c3ccccc3)oc2CO)cc1`: 157 to 158 °C.
As for `CC(=O)CC(=O)CC(=O)c1cc(S(=O)(=O)c2ccccc2)ccc1[N+](=O)[O-]`, the figure is 143 to 145 °C; as for `O=C(O)c1cc(OCc2ccccc2)c(Cc2ccccc2)c(S(=O)(=O)Cl)c1`, 164 to 166 °C.
Next, `Cc1c(-c2csc(-c3ccncc3)n2)c(=O)[nH]c2ccccc12`: greater than 250 °C; `COc1ccc2c(c1)c(S(=O)(=O)c1ccccc1)cn2CCCl`: 148 to 150 °C.
The compound `O=C(C=Cc1cccc(F)c1)c1cnc2sc3c(n12)CCCCC3` registered a melting point of 176 to 177 °C.
Next, `Cc1cc2c3c(c1)C(c1ccccc1)C(=O)N3CC(=O)N2` (centres undefined): 195 to 200 °C; `Cc1cccc(C)c1NC(C)(C)C(=O)O`: 148 °C; `Cc1ccccc1CN1CCC(n2c(C)c(-c3ccc(Cl)cc3)[nH]c2=O)CC1`: 218 to 220 °C.
As for `Cc1c(C(=O)O)sc2ccc(CO)cc12`, the figure is 260 to 262 °C.
Next, `COc1ccc(C=N[C@H]2C(O)O[C@H](CO)[C@@H](O)[C@@H]2O)cc1` (some centres undefined): 165 °C; `O=S(=O)(c1ccc(Cl)cc1)c1c(-c2ccc(Cl)cc2)[nH]c(C(F)(F)F)c1Br`: greater than 230 °C.
Compound `COc1cc2cc(C#N)c(Cl)nc2cc1OC` gave a melting point of 224 °C.
`C#CCNC(=O)N1CC(Oc2ccc(Cl)cc2)C1` showed a melting point of 120 to 122 °C.
As for `c1ccc(-c2nnc3cc(N4CCOCC4)c(OCc4ccccn4)nn23)cc1`, the figure is 214 °C.
Next, `CCN(CC)c1nc(Cl)nc2ccccc12`: 68 to 70 °C; `CCCCn1c(=O)n(CC)c(=O)c2c1ncn2S(=O)(=O)c1ccc(C)cc1`: 135 to 139 °C.
As for `CS(=O)(=O)c1ccc(C(=O)Nc2ccc(-n3nc(C(F)(F)F)cc3C(F)(F)F)cc2)c(Cl)c1`, the figure is 219 to 220 °C; as for `Cc1nc2c(-c3cccc(N4CCC(N5CCCC5)CC4)c3)cnn2c(N)c1-c1ccc(F)cc1`, 244 to 249 °C.
For the compound `COC(=O)COc1ccc(C(=O)c2ccccc2)c(O)c1`, the melting point fell in the range of 131 to 134 °C.
Next, `CCN(C)C(=O)N1N=C2c3cc(F)ccc3OC[C@@H]2[C@@H]1c1ccccc1` (racemic): 133 to 137 °C; `CS(=O)(=O)c1cc(F)cc(Cc2cc3cccc(-c4cccc(C(=O)NCC(N)=O)c4)c3s2)c1`: 160 to 161 °C.
Take `CC(C)(C)c1cc(C2CCC3SC2CCC3c2cc(C(C)(C)C)c(O)c(C(C)(C)C)c2)cc(C(C)(C)C)c1O` (centres undefined): the melting point lay within 247 to 250 °C.
Next, `O=C(Sc1ccccc1)c1cc2cc(CCl)ccc2oc1=O`: 164 to 166 °C.
Next, `Nc1cncnc1NCCN1CCC(Nc2nc3ccccc3n2Cc2ccc(F)cc2)CC1`: 208 °C.
As for `CC(C)(C)C(=O)SC[C@H](NC(=O)C(C)(C)SC(=O)C(C)(C)C)C(=O)O`, the figure is 140 to 141 °C; as for `O=C(O)c1ccc(/C=C/c2cnc3ccccc3c2)cc1`, 287 to 290 °C.
Compound `COc1cc(OC)c(-c2cccs2)cc1/C=C/C(=O)c1ccc(S(=O)(=O)Nc2cc[nH]n2)cc1` gave a melting point of 142 to 145 °C.
Next, `CCN1CC(c2ccccc2)=C(O)C1=O`: 192 to 195 °C.
Next, `CCOC(=O)C(C)(C)Oc1ccc(CCCC(=O)NN(Cc2cccc(OC)c2)C(N)=O)cc1`: 91.9 to 93.4 °C; `CCc1cc(Cl)cnc1N`: 67 to 68 °C.
As for `N=C(NS(=O)(=O)c1ccc(Cl)cc1)C1CN(c2ccc(Cl)cc2)C(c2ccc(Cl)cc2Cl)=N1` (centres undefined), the figure is 165 to 166 °C; as for `CN(C)c1ccc(N=Nc2nc3ccccc3s2)cc1`, 243 to 246 °C.
The compound `CN1CCN(CC2COCc3nc4c(N)nc5ccccc5c4n32)CC1` (centres undefined) returned a melting point of 187 to 190 °C.
Next, `Cc1cc2cc(CN3CCCC3)cnc2cc1NC(=O)c1ccc(-c2ccc3ccccc3c2)cc1`: 194 °C; `COC(=O)c1cc2c(C)ccc(C)c2n1C(C)=O`: 92 to 93 °C.
Compound `CCCc1cccnc1N(CC)C1CCN(C(=O)c2ccc[nH]2)CC1` showed a melting point of 115 to 116 °C.
As to `CN1CCN(C2=Nc3cc(F)ccc3Nc3ccsc32)CC1`, the melting point lay within 206 to 208 °C.
Regarding `CN1CCCC(COc2ccc(C(=O)NN)cc2)C1` (centres undefined), the melting point fell in the range of 170 to 172 °C.
In turn, `CN1C(c2cccnc2)CC(=O)CC1c1cccnc1` (centres undefined) showed a melting point of 103 to 106 °C.
Next, `COc1c(C2CCN(CCCCNC(=O)c3sc(-c4ccc(C#N)cc4)nc3C)CC2)ccc2c1CCCC2`: 160 to 164 °C.
`Oc1c(Br)cc2oc3ccccc3c2c1Br` had a melting point of 176 to 178 °C.
Consider `CSCCCCCC=C(NC(=O)C1CC1(C)C)C(=O)O` (centres undefined), for which the melting point was in the range of 82 to 84 °C.
As for `Cc1cc(Cc2cnc(NCCSCc3cc(CN(C)C)ccn3)[nH]c2=O)cnc1C`, the figure is 72 to 78 °C; as for `CCN(CC)CCN(C)C1(c2ccccc2Cl)C(=O)Nc2ccc(Cl)cc21` (centres undefined), 140 °C.
Next, `C=C(C)/C=C(\NC(C)=O)C1(c2ccc(Cl)cc2)CCC1`: 120 °C.
As for `COC(=O)CCC(=O)c1cc2cc(OC)c(OC)cc2o1`, the figure is 140 to 142 °C; as for `CC1=C(/C=C/C(C)=C/C=C/C(C)=C\C(=O)O)C(C)(C)C(O)C=C1` (centres undefined), 108 to 110 °C; as for `CNC(=O)c1cc(=NS(=O)(=O)c2ccccc2)c2c(Cl)cc(Cl)cc2[nH]1`, 196 to 197 °C.
Take `CCOC(=O)c1c(S(=O)c2ccccc2)n(C2CC2)c2c(F)c(F)c(F)cc2c1=O` (centres undefined): the melting point is 190 to 191 °C.
Next, `O=C(CCN1CCN(Cc2ccccc2)CC1)c1ccc2oc3ccccc3c2c1`: 135 to 136 °C.
Next, `Fc1ccc(C2(Cl)CN(C(c3ccccc3)c3ccccc3)C2)cc1`: 108 to 109 °C; `C1=CNc2ccccc2C=N1`: 165 to 167 °C.
Next, `Fc1ccccc1[C@@H]1Cc2cnc(Nc3cccc(CCN4CCNCC4)c3)nc2-c2ccccc21`: 165 to 167 °C; `O=C(O)CC(NC(=O)C(Cl)Cl)C(=O)O` (centres undefined): 165 to 168 °C; `COc1cc([N+](=O)[O-])c(CCC(=O)O)c([N+](=O)[O-])c1O`: 195 °C.
In turn, `O=C(O)c1cc(C(c2cc(F)ccc2F)S(=O)(=O)c2ccc(Cl)cc2)c(F)cn1` (centres undefined) registered a melting point of 208 to 209 °C.
As for `CC1CCC(C(C)C)C(OC(=O)C2(CC(N)=O)C(=O)N(Cc3ccc(Br)cc3F)C(=O)c3cccn32)C1` (centres undefined), the figure is 122 to 123 °C; as for `COC(=O)N(C)c1cccc(-c2ccc3nncn3n2)c1`, 195 to 199 °C; as for `CC(C)(C)OC(=O)N1CCN(c2ccc(NC(=O)Nc3nc(C(C)(C)C)cs3)cc2)CC1`, 123 to 124 °C.
As for `Cn1c(=O)c2c(OCc3ccccc3)cccc2n2cnc(-c3noc(C4CC4)n3)c12`, the figure is 221 to 224 °C.
As to `O=[N+]([O-])c1cc(O)c(F)cc1F`, the melting point fell in the range of 117 to 119 °C.
As for `CCOC(=O)c1ncn2c1CN=C(c1ccccc1)c1cc(I)ccc1-2`, the figure is 221 to 222 °C; as for `O=C(NCCCCc1cccnc1)c1ccc(-c2cccc(O)c2)cc1`, 150 to 152 °C; as for `CC(C)=CCc1cc(C2CC(=O)c3ccc(O)cc3O2)ccc1O` (centres undefined), 76 to 78 °C.
The compound `COC(=O)CCCCCCCCOC1OC(CO)C(O)C(O)C1NC(C)=O` (centres undefined) registered a melting point of 178 to 180 °C.
In the case of `Cc1cc2c(c(C)c1C)C(=O)C(C)(C)O2`, the melting point was 77 to 78 °C.
As to `CC(=O)Nc1c(Cl)cc(C(C)=O)c2c1OCCO2`, the melting point was 181 to 182 °C.
In turn, `CCN(CC)CCCN1CCC(O)(c2ccccc2)C(C(=O)c2ccccc2)C1` (centres undefined) came in with a melting point of 76 to 78 °C.
`CCN1C(=O)C(C(=O)c2cccs2)c2cc(Cl)cnc21` (centres undefined) yielded a melting point of 111 to 112 °C.
As for `CCOC(=O)[C@]1(O)C=C[C@@H](NC(C)=O)[C@@H]2OC(C)(C)O[C@@H]21`, the figure is 97 to 99 °C; as for `O=C(c1ccc(-c2ccccc2)cc1)c1cccnc1`, 112 to 115 °C; as for `COc1ccc(C(=O)c2ccncc2)cc1OC`, 117 to 118 °C.
As for `CCOC(=O)c1ccc(N(NC(C)=O)C(=O)OC(C)(C)C)cc1`, the figure is 105 to 108 °C; as for `Cc1cc2c3c(c1)[nH]c(=O)n3CC(C)NC2` (centres undefined), 199 °C; as for `Cc1nc(C(N)=O)c2n1-c1ccc(Cl)cc1C(c1ccccc1)=NC2`, 335 to 340 °C.
As for `Cc1ccnc(NC(N)=S)c1`, the figure is 210 to 212 °C; as for `COc1cc(-c2csc(N(CCC3CCCCC3)C(=O)c3cc4ccccc4n3CC(=O)O)n2)c(OC)cc1C`, 198 °C.
`CN(C)NC(=O)c1c([Si](C)(C)C)ccc(Cl)c1Cl` displayed a melting point of 144 to 145 °C.
Compound `COc1ccc2c(N)c(C(=O)Nc3ccc(Cl)cc3Cl)oc2c1` showed a melting point of 187 to 188 °C.
As for `CC(C)N1CCN(c2ccc(N)cc2)C(=O)C1`, the figure is 156 to 159 °C; as for `CCCCN(CCCC)CCCOc1ccc(C(=O)c2c(-c3ccccc3)cc3ccccn23)cc1`, 92 to 93.5 °C; as for `COC(=O)c1cc2cc(C=O)ccc2[nH]1`, 208 °C.
As for `Nc1ccc(CCCCOCCCCCCNCC(O)c2cc(O)cc(O)c2)cc1` (centres undefined), the figure is 157 to 159 °C.
Next, `COc1cc(COc2nn(-c3ccccc3)cc2/C=C\c2cscn2)ccc1OCc1nc(-c2ccco2)oc1C`: 137 to 138 °C; `O=C(O)c1cn(-c2ccc(F)cc2F)c2nc(S(=O)(=O)c3ccccc3)c(F)cc2c1=O`: 252 to 258 °C; `O=C(c1ccccc1SSc1ccccc1C(=O)N1CCC(O)C1)N1CCC(O)C1` (centres undefined): 168 to 172 °C.
Take `CCc1cccc(C)c1CNc1nc(Br)cnc1N`: the melting point was found to be 155 °C.
